Reference: patent US20110008465A1, “SESQUITERPENE FORMULATIONS, KITS AND METHODS OF USE THEREOF” (priority 2007, published 2011)
Where a name gives a salt, the structure may show the parent alone.

Columns and labels:
Test in all cases: Chou and Talalay combination assay with beta-caryophyllene
Conditions in all cases: anticancer drug in combination with beta-caryophyllene; Chou and Talalay CI; 48 h
[1] = system: U-251 (human glioblastoma); type: cell-based
Method: (§1) Each solution was prepared fresh and use within 1 hour after preparation.
(§2) Cells were then harvested using trypsine-EDTA. Cells were counted using a hemocytometer and resuspended in DMEM+10% FBS medium.
(§3) Proliferation assay: Increasing concentrations of the anticancer agents and/or beta-caryophyllene were added to 96-well plate (100 μL per well). The final concentration of solvent in the culture medium was maintained below 0.5% (volume/volume) to avoid solvent toxicity.
(§4) The cells were incubated for 48 h at 37° C. and 5% CO2. Cytotoxicity was assessed using the resazurin reduction test (O'Brien et al., 2000). Fluorescence was measured on an automated 96-well Fluoroskan Ascent FI™ plate reader (Labsystems) using excitation and emission wavelengths of 530 nm and 590 nm, respectively. Resazurin was then removed.
(§5) Microplates were frozen at −20° C. overnight. Plates were thawed, a volume of 100 μl of 0.01% SDS in water was added to the wells, the plates were shaken at room temperature for 3 hours and then frozen once more at −20° C. overnight. […] Plates were shaken in the dark (at room temperature) for at least 2 hours, and fluorescence was measured on an automated 96-well Fluoroskan Ascent FI™ plate reader (Labsystems) using excitation and emission wavelengths of 360 nm and 460 nm, respectively.
(§6) Results were analyzed using the Chou and Talalay method (9) and may be interpreted as follow: Cl>1 represents an antagonist effect of beta-caryophyllene with the corresponding anticancer agent; Cl=1 represents an additive effect of beta-caryophyllene with the corresponding anticancer agent; Cl<1 represents a potentiating effect of beta-caryophyllene with the corresponding anticancer agent.

[2] = system: GL-261 (murine glioblastoma); type: cell-based
Method: as §1, §2, §3, §4, §5, §6

B16 (murine melanoma) = type: cell-based
Method: as §1, §2, §3, §4, §5, §6

MEL-2 (human melanoma) = type: cell-based
Method: as §1, §2, §3, §4, §5, §6

PC-3 (prostate cancer) = type: cell-based, human
Method: as §1, §2, §3, §4, §5

DLD-1 (colon cancer) = type: cell-based, human
Method: as §1, §2, §3, §4, §5, §6

PA-1 (ovary cancer) = type: cell-based, human
Method: as §1, §2, §3, §4, §5, §6

MCF-7 (breast cancer) = type: cell-based, human
Method: as §1, §2, §3, §4, §5, §6

A-549 (lung cancer) = type: cell-based, human
Method: as §1, §2, §3, §4, §5, §6

[3] = system: MDA-MB-231 (breast cancer); type: cell-based, human
Method: as §1, §2, §3, §4, §5, §6

Compound	Potentiating activity U-251 [1]	Potentiating activity GL-261 [2]	Potentiating activity B16 (B16 (murine melanoma))	Potentiating activity MEL-2 (MEL-2 (human melanoma))	Potentiating activity PC-3 (PC-3 (prostate cancer))	Potentiating activity DLD-1 (DLD-1 (colon cancer))	Potentiating activity PA-1 (PA-1 (ovary cancer))	Potentiating activity MCF-7 (MCF-7 (breast cancer))	Potentiating activity A-549 (A-549 (lung cancer))	Potentiating activity MDA [3]
COc1cc2ncnc(Nc3cccc(Cl)c3)c2cc1OC [Tyrphostin, Tyrphostin AG 1478]	(1) (Very High: potentiating or additive activity to IC20 and CI < 0.6 to IC50)	(3) (Moderate: 0.5 < CI < 0.8 to IC50)	(1) (Very High: potentiating or additive activity to IC20 and CI < 0.6 to IC50)	(1) (Very High: potentiating or additive activity to IC20 and CI < 0.6 to IC50)	(2) (High: CI < 0.5 to IC50)	(1) (Very High: CI equal or below 1 at IC20 and Cl below 0.6 to IC50)	(2) (High: CI < 0.5 to IC50)	(1) (Very High: CI equal or below 1 at IC20 and Cl below 0.6 to IC50)	(3) (Moderate: 0.5 < CI < 0.8 at IC50)	(4) (Weak: 0.8 < CI < 1 at IC50)
CC/C(=C(\c1ccccc1)c1ccc(OCCN(C)C)cc1)c1ccccc1 [Tamoxifen, tamoxifen citrate]	(1) (Very High: potentiating or additive activity to IC20 and CI < 0.6 to IC50)	(2) (High: CI < 0.5 to IC50)	(3) (Moderate: 0.5 < CI < 0.8 to IC50)	(1) (Very High: potentiating or additive activity to IC20 and CI < 0.6 to IC50)	(2) (High: CI < 0.5 to IC50)	(2) (High: CI below 0.5 at IC50)	(2) (High: CI < 0.5 to IC50)	(6) (Antagonist effect: CI > 1)	(3) (Moderate: 0.5 < CI < 0.8 at IC50)	(5) (Additive effect: CI = 1)
O=c1[nH]cc(F)c(=O)[nH]1 [5-fluorouracil, 5-Fluorouracil]	(1) (Very High: potentiating or additive activity to IC20 and CI < 0.6 to IC50)	(3) (Moderate: 0.5 < CI < 0.8 to IC50)	(1) (Very High: potentiating or additive activity to IC20 and CI < 0.6 to IC50)	(1) (Very High: potentiating or additive activity to IC20 and CI < 0.6 to IC50)	(2) (High: CI < 0.5 to IC50)	(3) (Moderate: 0.5 < CI < 0.8 at IC50)	(2) (High: CI < 0.5 to IC50)	(1) (Very High: CI equal or below 1 at IC20 and Cl below 0.6 to IC50)	(6) (Antagonist effect: CI > 1)	(3) (Moderate: 0.5 < CI < 0.8 at IC50)
CN(C)/N=N/c1[nH]cnc1C(N)=O [Dacarbazine, dacarbazine]	(1) (Very High: potentiating or additive activity to IC20 and CI < 0.6 to IC50)	(2) (High: CI < 0.5 to IC50)	(1) (Very High: potentiating or additive activity to IC20 and CI < 0.6 to IC50)	(1) (Very High: potentiating or additive activity to IC20 and CI < 0.6 to IC50)	(4) (Weak: 0.8 < CI < 1 to IC50)	(3) (Moderate: 0.5 < CI < 0.8 at IC50)	(1) (Very High: potentiating or additive activity to IC20 and CI < 0.6 to IC50)	(1) (Very High: CI equal or below 1 at IC20 and Cl below 0.6 to IC50)	(2) (High: CI below 0.5 at IC50)	(1) (Very High: CI equal or below 1 at IC20 and Cl below 0.6 to IC50)
COc1cc([C@@H]2c3cc4c(cc3[C@@H](O[C@@H]3O[C@@H]5CO[C@@H](C)O[C@H]5[C@H](O)[C@H]3O)[C@H]3COC(=O)[C@H]23)OCO4)cc(OC)c1O [Etoposide, etoposide]	(3) (Moderate: 0.5 < CI < 0.8 to IC50)	(2) (High: CI < 0.5 to IC50)	(3) (Moderate: 0.5 < CI < 0.8 to IC50)	(3) (Moderate: 0.5 < CI < 0.8 to IC50)	(6) (Antagonist effect: CI > 1)	(3) (Moderate: 0.5 < CI < 0.8 at IC50)	(1) (Very High: potentiating or additive activity to IC20 and CI < 0.6 to IC50)	(1) (Very High: CI equal or below 1 at IC20 and Cl below 0.6 to IC50)	(4) (Weak: 0.8 < CI < 1 at IC50)	(1) (Very High: CI equal or below 1 at IC20 and Cl below 0.6 to IC50)
vinblastine sulfate salt	(1) (Very High: potentiating or additive activity to IC20 and CI < 0.6 to IC50)	(1) (Very High: potentiating or additive activity to IC20 and CI < 0.6 to IC50)	(1) (Very High: potentiating or additive activity to IC20 and CI < 0.6 to IC50)	(1) (Very High: potentiating or additive activity to IC20 and CI < 0.6 to IC50)	(3) (Moderate: 0.5 < CI < 0.8 to IC50)	(1) (Very High: CI equal or below 1 at IC20 and Cl below 0.6 to IC50)	(1) (Very High: potentiating or additive activity to IC20 and CI < 0.6 to IC50)	(1) (Very High: CI equal or below 1 at IC20 and Cl below 0.6 to IC50)	(1) (Very High: CI equal or below 1 at IC20 and Cl below 0.6 to IC50)	(1) (Very High: CI equal or below 1 at IC20 and Cl below 0.6 to IC50)
CN(Cc1cnc2nc(N)nc(N)c2n1)c1ccc(C(=O)N[C@@H](CCC(=O)O)C(=O)O)cc1 [Methotrexate]	(2) (High: CI < 0.5 to IC50)	(6) (Antagonist effect: CI > 1)	(6) (Antagonist effect: CI > 1)	(1) (Very High: potentiating or additive activity to IC20 and CI < 0.6 to IC50)	(6) (Antagonist effect: CI > 1)	(4) (Weak: 0.8 < CI < 1 at IC50)	(1) (Very High: potentiating or additive activity to IC20 and CI < 0.6 to IC50)	(2) (High: CI below 0.5 at IC50)	(4) (Weak: 0.8 < CI < 1 at IC50)	(6) (Antagonist effect: CI > 1)
N.N.[Cl][Pt][Cl] [Cisplatine, Cisplatin]	(6) (Antagonist effect: CI > 1)	(6) (Antagonist effect: CI > 1)	(1) (Very High: potentiating or additive activity to IC20 and CI < 0.6 to IC50)	(1) (Very High: potentiating or additive activity to IC20 and CI < 0.6 to IC50)	(6) (Antagonist effect: CI > 1)	(1) (Very High: CI equal or below 1 at IC20 and Cl below 0.6 to IC50)	(2) (High: CI < 0.5 to IC50)	(2) (High: CI below 0.5 at IC50)	(2) (High: CI below 0.5 at IC50)	(3) (Moderate: 0.5 < CI < 0.8 at IC50)
